Laboratory results taken from article PMC9512720, “Insight into the mechanism of molecular recognition between human Integrin-Linked Kinase and Cpd22 and its implication at atomic level” (Journal of Computer-Aided Molecular Design, 2022).
pKd: −log10 of the molar value.

Target: T1, Integrin-linked kinase (ILK) (Homo sapiens, UniProt Q13418)
T1 sequence (Q13418 1-452): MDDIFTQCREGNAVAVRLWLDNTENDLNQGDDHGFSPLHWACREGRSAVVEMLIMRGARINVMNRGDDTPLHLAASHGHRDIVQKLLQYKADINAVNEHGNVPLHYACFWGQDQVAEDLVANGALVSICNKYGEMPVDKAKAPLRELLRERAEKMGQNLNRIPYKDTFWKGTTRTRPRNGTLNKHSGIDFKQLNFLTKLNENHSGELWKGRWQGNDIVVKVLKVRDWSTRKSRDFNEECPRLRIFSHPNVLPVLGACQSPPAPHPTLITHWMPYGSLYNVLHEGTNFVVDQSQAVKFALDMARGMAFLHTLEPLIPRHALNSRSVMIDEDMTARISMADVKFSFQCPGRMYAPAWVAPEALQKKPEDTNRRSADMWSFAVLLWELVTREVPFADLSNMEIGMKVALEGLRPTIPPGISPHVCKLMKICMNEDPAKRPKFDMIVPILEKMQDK
Assay: SPR (Biacore X-100, ILK immobilized on CM5 chip by amine coupling, Cpd22 […])
Assay type: binding

pKd: ~3.23
Compound: CNC(=O)CCc1cc(-c2ccc(-c3ccc(C(F)(F)F)cc3)cc2)n(-c2ccc(N3CCNCC3)cc2)n1 [Cpd22]
